Assay [1] relates to intracellular S. Typhimurium in RAW264.7 macrophages. Briefly: microbe, parasite or virus in culture. The note with it: for viability at 0.5 µM: TYPHIMURIUM, RAW264.7, read-out: viability of intracellular Salmonella compared to mock-treated cells. The class given is cell-based, Salmonella enterica serovar Typhimurium. The protocol:
(§1) Overnight cultures of RFP-expressing S. Typhimurium were prepared for infection by 1:100 dilution in fresh LB broth and incubation for 2 h at 37°C. The bacteria were then collected by centrifugation at 6,000 × g for 3 min and suspended in phosphate-buffered saline (PBS; pH 7.2) to an optical density of 0.6 at 600 nm, which was equivalent to 5 × 10^8 CFU/mL. RAW264.7 macrophages were seeded in 96-well black clear-bottom plates (Greiner) and incubated for 20 h followed by infection with RFP-expressing S. Typhimurium at a multiplicity of infection (MOI) of 50 for 1 h. […] Afterward, the cells were washed and stained with CellTracker Green (Thermo Fisher Scientific) for 30 min in serum-free DMEM followed by fixation in 3.7% formaldehyde (Sigma-Aldrich) for 20 min and stained with 0.2 mg/L DAPI (4′,6-diamidino-2-phenylindole; AAT Bioquest) for 30 min. Images of individual wells were captured and analyzed using a high-content imaging system (ImageXpress Micro 4; Molecular Devices). The CC50 and 50% effective concentration (EC50) values against intracellular bacteria of each compound were determined using CalcuSyn software (Biosoft).

For assay [2], the system named is intracellular S. Typhimurium in RAW264.7 cells. Kind of assay: CFU assay of bacterial growth in macrophages. The class given is cell-based, Salmonella enterica serovar Typhimurium. The note with it: submicromolar concentrations, with gentamicin 20 mg/L, 24 h. The protocol:
Overnight cultures of S. Typhimurium were diluted 1:100 in fresh LB broth and incubated for 2 h at 37°C. The bacteria were then collected and suspended in PBS to an OD600 of 0.6. RAW264.7 cells seeded in a 6-well plate were infected with S. Typhimurium at an MOI of 25 for 1 h. After infection, the cells were washed, exposed to 100 mg/L gentamicin for 1 h, and treated with SW14 (0.25 to 1 μM) in combination with 20 mg/L gentamicin for 24 h. Then, the infected cells were washed and lysed with 0.1% Triton X-100 in PBS for 10 min at 37°C to release the intracellular bacteria. The cell lysates were serially diluted in PBS, spread on LB agar plates, and incubated at 37°C for 18 h. The bacterial colonies on the plates were enumerated and expressed as CFU.

The test system of assay [3] is multidrug-resistant S. Typhimurium isolates 0911R and NL08.10 in RAW264.7 cells. Kind of assay: HCA of intracellular multidrug-resistant isolates in macrophages. It counts as cell-based, Salmonella enterica serovar Typhimurium. The note with it: 0911R and NL08.10, gentamicin, 24 h. The protocol:
as §1

The test system of assay [4] is S. Typhimurium ATCC 14028. Briefly: MIC assay (broth microdilution). It counts as cell-based, Salmonella Typhimurium. The protocol:
(§2) The minimal inhibitory concentration (MIC) of each test compound against the individual bacterial strains was determined by the broth microdilution method following the guidelines recommended by the Clinical and Laboratory Standards Institute (CLSI) ([27]).
In general terms: In broth dilution the organism is exposed to a series of concentrations in liquid medium.

The test system of assay [5] is S. Typhimurium NL08.10. Briefly: MIC assay (broth microdilution). The class given is cell-based, Salmonella Typhimurium. As to conditions: Salmonella enterica, TYPHIMURIUM
The protocol: as §2

Assay [6] relates to S. Typhimurium SA10. Kind of assay: MIC assay (broth microdilution). The class given is cell-based, Salmonella Typhimurium. As to conditions: Salmonella enterica, TYPHIMURIUM; Table S1(B), SA10. The protocol:
as §2

Assay [7] deals with S. Typhimurium SB10. Kind of assay: MIC assay (broth microdilution). It counts as cell-based, Salmonella Typhimurium. As to conditions: Salmonella enterica, TYPHIMURIUM
The protocol:
as §2

The test system of assay [8] is ROS levels in Salmonella-infected RAW264.7 cells. Briefly: Analysis of ROS in macrophages (H2DCFDA). It counts as cell-based, murine. The note with it: 1 h; SW14 at concentrations up to 8 μM. The protocol:
RAW264.7 macrophages were seeded in 96-well black plates and infected by S. Typhimurium ATCC 14028 at an MOI of 25 for 1 h. After infection, the cells were washed, exposed to 100 mg/L gentamicin for 1 h, washed with warm Krebs-Ringer phosphate buffer (KRP buffer; 120 mM NaCl, 5 mM KCl, 1.7 mM KH2PO4, 8.3 mM Na2HPO4, 10 mM glucose, 1 mM CaCl2, 1.5 mM MgCl2, pH 7.3) and stained with H2DCFDA at 37°C with 5% CO2 for 45 min. The cells were then washed with KRP buffer and treated with SW14 or PMA at the desired concentrations in KRP buffer with 10% FBS. Fluorescence signals at 488/525 nm (excitation/emission) were measured using a SpectraMax M5 Microplate Reader (Molecular Devices).

The test system of assay [9] is S. Typhimurium ATCC 14028. Briefly: Analysis of bacterial susceptibility to H2O2 (CFU). The class given is cell-based, Salmonella enterica serovar Typhimurium. As to conditions: SW14 0.5 μM, 1 h. The protocol:
Overnight-grown S. Typhimurium cultured in LB medium were diluted 1:50 in LPM medium or LB medium followed by incubation at 37°C for 3 h. The bacterial suspension was adjusted to an OD600 of 0.2 in fresh LPM medium or LB medium, exposed to SW14 and H2O2 for 1 h at 37°C with agitation, then serially diluted 10-fold in PBS, and spread on LB agar plates. After incubation at 37°C for 18 h, the number of colonies was counted, and the results are expressed as CFU/mL.

The test system of assay [10] is S. Typhimurium ATCC 14028. Briefly: Efflux pump activity (Hoechst 33342 accumulation assay). It counts as cell-based, Salmonella enterica serovar Typhimurium. As to conditions: data not shown in text; Fig. S2. The protocol: Figure S2. The accumulation of Hoechst 33342 in S. Typhimurium ATCC 14028 treated
with escalated concentrations of SW14 for 1 h in the LPM medium was measured using a
fluorescence microplate reader. The data are presented as the mean ± SD (n = 3 per group).
ns: non-significant, P > 0.05; ***P < 0.001; ****P < 0.0001.
Hoechst 33342 accumulation assay
Overnight-grown S. Typhimurium cultured in LB medium was diluted 1:50 in LPM
medium and incubated at 37°C for 3 h. The bacterial suspension was adjusted to an OD600
of 0.1 in fresh LPM medium supplemented with 2.5 µM Hoechst 33342 (Thermo Fisher
Scientific) followed by treatment of mock (DMSO) or SW14 (0.03125 – 8 µM in DMSO)
for 1 h. Bacterial cells which were treated with high temperature (90° C) for 10 min (heat-
killed) rapidly accumulated Hoechst 33342 and served as positive control. Fluorescence
was monitored on a SpectraMax M5 (Molecular devices) with a 355 nm excitation filter
and 460 nm emission filter. The percent inhibition was calculated by the equation: 100 ´
[(SW14-treated – mock) / (Heat-killed – mock)].

1 compound from publication PMC8635125, “A Novel Dibenzoxazepine Attenuates Intracellular Salmonella Typhimurium Oxidative Stress Resistance” (Microbiology Spectrum, 2021) can be followed below.

Molecules are shown by their SMILES. Read-outs that look alike come from different tables or passages of the source. Bounds are passed on as bounds.

One may read the viability as the share of living cells, or the viability signal relative to a control. As a reminder, the MIC is the lowest concentration that inhibits growth of the organism. Read a high MIC as a need for much substance.

Consider `Clc1ccc2c(c1)C(NCCN1CCNCC1)=Nc1ccccc1O2` [SW14], for which, in assay [1] (0.5 μM SW14, 24 h, equal to the antibiotic at 2-fold concentration), the “inhibitory activity of ciprofloxacin and cefixime on intracellular Salmonella in combination with SW14” value is “enhanced”. For the same compound, the “selectivity index (SI; CC50/EC50)” value in assay [1] (CC50 RAW264.7 / EC50 intracellular Salmonella) was 47. Further, in [1] (RAW264.7 shATG7 clones vs empty vector, 24 h), the “susceptibility of intracellular Salmonella to SW14 after Atg7 knockdown” value was “more susceptible”. For the same compound, the viability at 0.5 µM worked out at 36.8% in assay [1] (Salmonella enterica, 3-MA 10 mM for 1 h, then SW14 0.5 μM for 24 h, HCA) and 45% in assay [1] (Salmonella enterica, SW14 0.5 μM alone, 24 h, HCA). Moreover, in assay [1] (Salmonella enterica, RFP-expressing S. Typhimurium in RAW264.7, 24 h, with gentamicin 20 mg/L, HCA, read-out: 50% effective concentration (EC50) against intracellular Salmonella), the EC50 came to 500 nM. Besides, the “suppressive effect on intracellular S. Typhimurium in the presence of ROS scavengers” value in assay [1] (with NAC 10 mM or GSH 10 mM) is recorded as “reversed”. For the same compound, in [2], the “viability of intracellular Salmonella (CFU assay)” value is recorded as “potent suppressive effect”. Besides, the “intracellular replication of MDR S. Typhimurium isolates” value in assay [3] was “remained susceptible”. Moreover, the MIC in [4] (Salmonella enterica) was greater than 64 µg/mL; in assay [4] (Table S1(B), ATCC 14028) it was greater than 64 µg/mL; in assay [5] it was greater than 64 µg/mL; in assay [6], greater than 64 µg/mL; in [7], greater than 64 µg/mL. In addition, the “ROS level (H2DCFDA fluorescence signal) in infected macrophages” value in assay [8] was “did not observe any significant change”. For the same compound, the “susceptibility of S. Typhimurium to H2O2” value is “significantly increased” in assay [9] (minimal LPM medium) and “not in nutrient-rich LB broth” in assay [9] (nutrient-rich LB broth). Besides, in assay [10], the “efflux pump activity in S. Typhimurium” value is “efflux pump suppressive effect”.
